What all share (assay type): functional
One test concerns Proteus vulgaris. The experiment in a line: Antibacterial activity against Proteus vulgaris NCIM 2027 assessed as growth inhibition after 24 hr by NCCLS broth dilution method. Conditions: NCIM 2027, 24 h.
A further test relates to Bacillus cereus. The experiment in a line: Antibacterial activity against Bacillus cereus NCIM 2156 assessed as growth inhibition after 24 hr by NCCLS broth dilution method. Conditions: NCIM 2156, 24 h.
A further test concerns Proteus mirabilis. The experiment in a line: Antibacterial activity against Proteus mirabilis NCIM 2241 assessed as growth inhibition after 24 hr by NCCLS broth dilution method. As to conditions: NCIM 2241, 24 h.
Another test relates to Pseudomonas aeruginosa. The experiment in a line: Antibacterial activity against Pseudomonas aeruginosa NCIM 2036 assessed as growth inhibition after 24 hr by NCCLS broth dilution method. As to conditions: NCIM 2036, 24 h.
A further test relates to Escherichia coli. The experiment in a line: Antibacterial activity against Escherichia coli NCIM 2065 assessed as growth inhibition after 24 hr by NCCLS broth dilution method. Conditions: NCIM 2065, 24 h.
The next test relates to Staphylococcus aureus. The experiment in a line: Antibacterial activity against Staphylococcus aureus NCIM 2079 assessed as growth inhibition after 24 hr by NCCLS broth dilution method. Conditions: NCIM 2079, 24 h.
The next test has as its system Bacillus subtilis. The experiment in a line: Antibacterial activity against Bacillus subtilis NCIM 2063 assessed as growth inhibition after 24 hr by NCCLS broth dilution method. As to conditions: NCIM 2063, 24 h.

Values after ≈ are worked out from the molar mass of the structure shown.

Consider `Cc1ccc(Nc2nc(Nc3ccc([N+](=O)[O-])cc3)nc(N3CCN(C(=S)Nc4ccnc5cc(Cl)ccc45)CC3)n2)cc1`, for which the MIC is 12.5 µg/mL (≈ 19.9 µM) in the test on Proteus vulgaris; 3.12 µg/mL (≈ 4.98 µM) with Bacillus cereus; 3.12 µg/mL (≈ 4.98 µM) with Proteus mirabilis; 6.25 µg/mL (≈ 9.97 µM) with Pseudomonas aeruginosa; 12.5 µg/mL (≈ 19.9 µM) with Escherichia coli; 12.5 µg/mL (≈ 19.9 µM) in the test on Staphylococcus aureus. The MIC in the test on Bacillus subtilis was 6.25 µg/mL (≈ 9.97 µM).

For `O=[N+]([O-])c1ccc(Nc2nc(N3CCOCC3)nc(N3CCN(C(=S)Nc4ccnc5cc(Cl)ccc45)CC3)n2)cc1`, the MIC was determined as 3.12 µg/mL (≈ 5.15 µM) in the test with Proteus vulgaris; 3.12 µg/mL (≈ 5.15 µM) in the test on Bacillus cereus; 12.5 µg/mL (≈ 20.6 µM) with Proteus mirabilis; 12.5 µg/mL (≈ 20.6 µM) with Pseudomonas aeruginosa; 6.25 µg/mL (≈ 10.3 µM) with Escherichia coli; 3.12 µg/mL (≈ 5.15 µM) with Staphylococcus aureus. Besides, the MIC in the test on Bacillus subtilis was determined as 6.25 µg/mL (≈ 10.3 µM).

Take `NNc1nc(Nc2ccc([N+](=O)[O-])cc2)nc(N2CCN(C(=S)Nc3ccnc4cc(Cl)ccc34)CC2)n1.O`: the minimum inhibitory concentration (MIC) with Proteus vulgaris stood at 12.5 µg/mL; with Bacillus cereus, 6.25 µg/mL; in the test on Proteus mirabilis, 6.25 µg/mL; in the test on Pseudomonas aeruginosa, 12.5 µg/mL; with Escherichia coli, 25 µg/mL; with Staphylococcus aureus, 25 µg/mL. The MIC in the test on Bacillus subtilis is 6.25 µg/mL.

In the case of `NC(=S)NNc1nc(Nc2ccc([N+](=O)[O-])cc2)nc(N2CCN(C(=S)Nc3ccnc4cc(Cl)ccc34)CC2)n1`, the MIC was found to be 12.5 µg/mL (≈ 20.5 µM) in the test on Proteus vulgaris; 3.12 µg/mL (≈ 5.11 µM) with Bacillus cereus; 12.5 µg/mL (≈ 20.5 µM) in the test on Proteus mirabilis; 6.25 µg/mL (≈ 10.2 µM) with Pseudomonas aeruginosa; 6.25 µg/mL (≈ 10.2 µM) in the test on Escherichia coli; 25 µg/mL (≈ 40.9 µM) with Staphylococcus aureus. Also, the MIC in the test with Bacillus subtilis amounted to 6.25 µg/mL (≈ 10.2 µM).

Turning to `Cc1ccccc1Nc1nc(Nc2ccc([N+](=O)[O-])cc2)nc(N2CCN(C(=S)Nc3ccnc4cc(Cl)ccc34)CC2)n1`, the MIC in the test on Proteus vulgaris was 25 µg/mL (≈ 39.9 µM); in the test on Bacillus cereus, 12.5 µg/mL (≈ 19.9 µM); in the test with Proteus mirabilis, 12.5 µg/mL (≈ 19.9 µM); in the test on Pseudomonas aeruginosa, 6.25 µg/mL (≈ 9.97 µM); with Escherichia coli, 6.25 µg/mL (≈ 9.97 µM); in the test on Staphylococcus aureus, 25 µg/mL (≈ 39.9 µM). The MIC with Bacillus subtilis came to 12.5 µg/mL (≈ 19.9 µM).

`O=[N+]([O-])c1ccc(Nc2nc(Nc3ccccc3)nc(N3CCN(C(=S)Nc4ccnc5cc(Cl)ccc45)CC3)n2)cc1`: the MIC in the test on Proteus vulgaris came out at 12.5 µg/mL (≈ 20.4 µM); with Bacillus cereus, 3.12 µg/mL (≈ 5.1 µM); with Proteus mirabilis, 6.25 µg/mL (≈ 10.2 µM); with Pseudomonas aeruginosa it was 6.25 µg/mL (≈ 10.2 µM); with Escherichia coli, 12.5 µg/mL (≈ 20.4 µM); in the test on Staphylococcus aureus, 12.5 µg/mL (≈ 20.4 µM). In addition, in the test on Bacillus subtilis, the MIC came to 12.5 µg/mL (≈ 20.4 µM).

For the compound `NC(=O)NNc1nc(Nc2ccc([N+](=O)[O-])cc2)nc(N2CCN(C(=S)Nc3ccnc4cc(Cl)ccc34)CC2)n1`, the MIC was 6.25 µg/mL (≈ 10.5 µM) in the test with Proteus vulgaris; 6.25 µg/mL (≈ 10.5 µM) in the test on Bacillus cereus; 6.25 µg/mL (≈ 10.5 µM) with Proteus mirabilis; 12.5 µg/mL (≈ 21 µM) in the test on Pseudomonas aeruginosa; 12.5 µg/mL (≈ 21 µM) in the test with Escherichia coli; 12.5 µg/mL (≈ 21 µM) in the test on Staphylococcus aureus. Moreover, the MIC in the test on Bacillus subtilis stood at 3.12 µg/mL (≈ 5.25 µM).

As for `NCCCNc1nc(Nc2ccc([N+](=O)[O-])cc2)nc(N2CCN(C(=S)Nc3ccnc4cc(Cl)ccc34)CC2)n1`, the MIC with Proteus vulgaris is 25 µg/mL (≈ 42.1 µM); with Bacillus cereus, 12.5 µg/mL (≈ 21 µM); in the test with Proteus mirabilis it was 12.5 µg/mL (≈ 21 µM); with Pseudomonas aeruginosa it was 12.5 µg/mL (≈ 21 µM); in the test with Escherichia coli, 12.5 µg/mL (≈ 21 µM); with Staphylococcus aureus it was 25 µg/mL (≈ 42.1 µM). Besides, in the test with Bacillus subtilis, the MIC came to 25 µg/mL (≈ 42.1 µM).

Consider `O=[N+]([O-])c1ccc(Nc2nc(Nc3ccc(O)cc3)nc(N3CCN(C(=S)Nc4ccnc5cc(Cl)ccc45)CC3)n2)cc1`, for which the MIC in the test with Proteus vulgaris is 50 µg/mL (≈ 79.5 µM); in the test on Bacillus cereus, 25 µg/mL (≈ 39.7 µM); with Proteus mirabilis, 50 µg/mL (≈ 79.5 µM); with Pseudomonas aeruginosa, 25 µg/mL (≈ 39.7 µM); in the test on Escherichia coli, 50 µg/mL (≈ 79.5 µM); in the test on Staphylococcus aureus it was 100 µg/mL (≈ 159 µM). In the test with Bacillus subtilis, the MIC stood at 25 µg/mL (≈ 39.7 µM).

Consider `CC1COc2c(N3CCN(C)CC3)c(F)cc3c(=O)c(C(=O)O)cn1c23` (stereo not given) [OFLOXACIN], for which the MIC with Proteus vulgaris is 3.12 µg/mL (≈ 8.65 µM); in the test with Bacillus cereus, 6.25 µg/mL (≈ 17.3 µM); in the test on Proteus mirabilis it was 3.12 µg/mL (≈ 8.65 µM); with Pseudomonas aeruginosa, 6.25 µg/mL (≈ 17.3 µM); with Escherichia coli, 3.12 µg/mL (≈ 8.65 µM); with Staphylococcus aureus it was 6.25 µg/mL (≈ 17.3 µM). Further, the MIC in the test with Bacillus subtilis amounted to 3.12 µg/mL (≈ 8.65 µM).
